Measurements: article PMC8741796, “In vitro characterization of a small molecule PD-1 inhibitor that targets the PD-l/PD-L1 interaction” (Scientific Reports, 2022)
“Also recorded” adds a separate entry of the source. Like-named read-outs stand apart in the source and are kept apart here.

Key:
KG-1 cells = test: WST-1 cell cytotoxicity assay in KG-1 cells; type: cell-based; conditions: 10 µM, 48 h
Method: (§1) Figure 2 In vitro screening of leading compounds. (A) Jurkat cells and (B) HEK293 cells were treated with six leading compounds to test cytotoxicity. Cells were seeded into 96-well plates at a density of 7 × 10^3/well and incubated overnight. The cells were then treated for 48 h with different concentrations (0, 10, 20, 40, and 80 µM) of the six CH compounds. At 48 h, cell cytotoxicity WST-1 assays were performed. The x-axis indicates treatment concentrations, while the y-axis indicates the percentage of cell viability (each absolute absorbance value [abs. 450 nm–630 nm] was normalized with the controls). (C) The capacity of the CH compounds to inhibit the PD-1/PD-L1 interaction was tested using the bioluminescent cell-based assay. Effector cells (growth-arrested reporter Jurkat cells) were preincubated with anti-PD-1 neutralizing antibody (Cat No. 71120), DMSO, or each of the CH compounds. The activity of luciferase was determined as an indicator of cell activation. The graphs present mean ± SD (standard deviation) values from at least three independent experiments. (D) After overnight incubation, KG-1 cells were treated for 48 h with increasing concentrations of the CH compounds (0, 10, 20, 40, or 80 µM). (E) KG-1 cells were incubated with CH compounds prior to sPD-L1-Atto staining. Flow cytometry determined binding of the Ni–NTA-labeled sPD-L1 (PD-L1-Atto) complex to KG-1 cells expressing PD-1. Cell staining (Atto-subset) was blocked in the presence of the CH compounds. The experimental groups are indicated as (a) KG-1/PBS, (b) KG-1/Atto dye, (c) KG-1/sPD-L1/Atto dye, (d) KG-1/sPD-L1/Atto dye/CH-1, (e) KG-1/sPD-L1/Atto dye/CH-2, (f) KG-1/sPD-L1/Atto dye/CH-3, (g) KG-1/sPD-L1/Atto dye/CH-4, (h) KG-1/sPD-L1/Atto dye/CH-5, (i) KG-1/sPD-L1/Atto dye/CH6. (F) The cell staining data from (E) are normalized and quantified as relative MFI values. (G) At 48 h, PD-1 protein (20 µg/well) expression was determined by Western blotting. The bar graphs present the mean ± SD (standard deviation) values from three independent experiments. *p < 0.05, **p < 0.01, ***p < 0.001. TEXT PRINTED IN THE PICTURE: (E) d.: 33.1 % | (E) e.: 38.1 % | (E) f.: 52.9 % | (E) g.: 4.01 % | (E) h.: 38.35 % | (E) i.: 49.35 % DOUBTS OF THE COPYIST ABOUT THIS PICTURE: Panel E: the picture labels the histograms only with the sub-panel letters a.-i.; it prints no compound name or measure beside the percentages, so the letters are used as labels. / Panel E: sub-panels a. (3.52 %), b. (4.59 %) and c. (53.9 %) were left out because they appear to be controls without a test compound. / Panel E, small print: d. 33.1 % (3 or 8), e. 38.1 % (8 or 3), f. 52.9 % (9 or 8), h. 38.35 % (3, 5 and 8 uncertain) and i. 49.35 % (9, 3 and 5 uncertain) are best readings.
Using the WST-1 assay, CH compound cytotoxicities were quantified at different concentrations in KG-1 cells (Fig. 2D). […] The data indicated an appropriate concentration for testing inhibition of the PD-1/sPD-L1 interaction by flow cytometry. To clarify the inhibitory qualities of CH compounds in sPD-L1/PD-1 interactions, His-tagged sPD-L1 recombinant protein was labeled with Ni–NTA-conjugated fluorescent dye (Atto) and flow cytometry analysis was performed (Fig. 2E). […] When KG-1 cells were treated with increasing concentrations of CH-4, PD-1 expression was unchanged (Fig. 2G).
The WST-1 assay assessed cell cytotoxicity. Briefly, cells were seeded in 96-well plates at a density of […] (100 μL/well) with 10% FBS in the medium and incubated for 48 h, before undergoing a further 1 h of incubation at 37 °C with 10 μL of WST-1 solution added to each well. Cell viability was quantified by colormetric detection using an ELISA plate reader (Beckman Coulter PARADIGM Detection Platform; Beckman Coulter, IL, USA) at absorbance values of 450 nm and 690 nm to generate an optical density proportional to the relative abundance of live cells in the wells.

HEK293 cells = test: WST-1 cell cytotoxicity assay in HEK293 cells; type: cell-based; conditions: WST-1, 48 h
Method: (§2) The WST-1 cytotoxicity assay evaluated cytotoxicity in effector cells (Jurkat cells) (Fig. 2A) and target cells (HEK293 cells) (Fig. 2B). The OD value that resulted from WST-1 reagent dye formation strongly correlated with the number of metabolically live cells. To further characterize cytotoxicity tolerance, CC50 (cytotoxic concentration 50%) values were calculated and are shown in Table 1. […] Doses of compounds in the screening assay were based on the CC50 values of each cell line. Thus, screening concentrations of CH-1, -2, -3, -4 and -6 were 0, 10, 20 and 40 µM, respectively, while the concentrations for CH-5 were 0, 0.1, 1 and 10 µM, respectively. To ensure reliable screening, anti-PD-1 neutralizing antibody (Cat No. 71120) was used as a positive control for inhibiting the interaction of PD-1/PD-L1, while HEK293 cells transfected with control plasmid served as the negative control. These groups were treated with increasing concentrations of anti-PD-1 neutralizing antibody (0, 0.1, 1 and 10 µg/mL) and luminescence intensity was determined after treatments.
as §1
(§3) Figure 3 In vitro inhibition by the CH-4 analog of the PD-1/PD-L1 interaction. […]

Jurkat cells = test: WST-1 cell cytotoxicity assay in Jurkat cells; type: cell-based; conditions: WST-1, 48 h
Method: as §2, §1, §3

PD-1/PD-L1 interaction = biological target: T1, PD-1/PD-L1 interaction (Homo sapiens, UniProt Q15116); test: Cell-based PD-1/PD-L1 checkpoint assay (bioluminescent NFAT-luciferase, Jurkat effector cells / PD-L1/TCR HEK293 target cells); conditions: CH compounds 0, 10, 20, 40 µM; CH-4 effect at 10 µM
T1 construct: expressed in transfected cells
T1 sequence (Q15116 25-288): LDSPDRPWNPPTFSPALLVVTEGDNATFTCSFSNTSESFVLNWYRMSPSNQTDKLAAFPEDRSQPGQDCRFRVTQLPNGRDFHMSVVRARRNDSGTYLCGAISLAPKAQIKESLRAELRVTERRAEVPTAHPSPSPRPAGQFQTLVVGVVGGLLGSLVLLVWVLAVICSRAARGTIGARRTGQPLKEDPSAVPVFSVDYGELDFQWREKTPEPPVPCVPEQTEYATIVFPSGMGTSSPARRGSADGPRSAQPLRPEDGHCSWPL
Source text: Protein docking analysis identified six potential SMIs targeting PD-1: CH-1, CH-2, CH-3, CH-4, CH-5, and CH-6. To evaluate their capacity to inhibit the PD-1/PD-L1 interaction, we used a cell-based PD-1/PD-L1 inhibitor screening approach consisting of a bioluminescent cell-based assay containing two main components; genetically manipulated effector cells (growth-arrested reporter Jurkat cells) and engineered PD-L1/TCR-overexpressed HEK293 cells (target cells). In this assay, PD-1-expressed effector cells were genetically manipulated with the nuclear factor of activated T-cells (NFAT)-associated luciferase reporter gene. We used HEK293 cells for transient overexpression of PD-L1 and an engineered TCR activator as target cells. When the two cells were co-cultivated, the PD-1/PD-L1 interaction prevented TCR activation and suppressed NFAT-induced luciferase activity.
The WST-1 cytotoxicity assay evaluated cytotoxicity in effector cells (Jurkat cells) (Fig. 2A) and target cells (HEK293 cells) (Fig. 2B). The OD value that resulted from WST-1 reagent dye formation strongly correlated with the number of metabolically live cells. […] These groups were treated with increasing concentrations of anti-PD-1 neutralizing antibody (0, 0.1, 1 and 10 µg/mL) and luminescence intensity was determined after treatments. […]

[1] = WST-1 cell cytotoxicity assay in HEK293 cells; type: cell-based; conditions: human, HEK293 cells, WST-1, 48 h
Method: as §2, §1, §3

PD-1/sPD-L1 interaction = biological target: T2, PD-1/sPD-L1 interaction (Homo sapiens, UniProt Q15116); test: Flow cytometry of sPD-L1-Atto binding to KG-1 cells expressing PD-1; type: cell-based; conditions: Ni-NTA-labeled sPD-L1
T2 construct: endogenous in cells; host or cells: KG-1 cells (ATCC)
T2 sequence (Q15116 25-288): as above
Method: (§4) Figure 2 In vitro screening of leading compounds. (A) Jurkat cells and (B) HEK293 cells were treated with six leading compounds to test cytotoxicity. Cells were seeded into 96-well plates at a density of 7 × 10^3/well and incubated overnight. The cells were then treated for 48 h with different concentrations (0, 10, 20, 40, and 80 µM) of the six CH compounds. At 48 h, cell cytotoxicity WST-1 assays were performed. The x-axis indicates treatment concentrations, while the y-axis indicates the percentage of cell viability (each absolute absorbance value [abs. 450 nm–630 nm] was normalized with the controls). (C) The capacity of the CH compounds to inhibit the PD-1/PD-L1 interaction was tested using the bioluminescent cell-based assay. […] The activity of luciferase was determined as an indicator of cell activation. […] Flow cytometry determined binding of the Ni–NTA-labeled sPD-L1 (PD-L1-Atto) complex to KG-1 cells expressing PD-1. […] (F) The cell staining data from (E) are normalized and quantified as relative MFI values. (G) At 48 h, PD-1 protein (20 µg/well) expression was determined by Western blotting. […] 49.35 % (9, 3 and 5 uncertain) are best readings.
Using the WST-1 assay, CH compound cytotoxicities were quantified at different concentrations in KG-1 cells (Fig. 2D). […]

[2] = WST-1 cell cytotoxicity assay in Jurkat cells; type: cell-based; conditions: human, Jurkat cells, WST-1, 48 h
Method: as §2, §1, §3

PD-1 protein = test: Western blotting of PD-1 protein expression in KG-1 cells; type: cell-based; conditions: increasing concentrations, 48 h
Method: as §4, with “controls).” for “controls). (C) The capacity of the CH compounds to inhibit the PD-1/PD-L1 interaction was tested using the bioluminescent cell-based assay.”
Figure 3 In vitro inhibition by the CH-4 analog of the PD-1/PD-L1 interaction. […] The x-axis indicates treatment concentrations, while the y-axis indicates the percentage of cell viability (each absolute absorbance value [abs. 450 nm–630 nm] was normalized with the controls). […]

[3] = mean ± SD, Table 1, read-out: CC50 293 cells
[4] = read-out: CC50 HEK293 cells (tolerance)
[5] = mean ± SD, Table 1, read-out: CC50 Jurkat cells
[6] = read-out: CC50 Jurkat cells (tolerance)

SMILES | cytotoxicity to KG-1 cells (KG-1 cells) | CC50 (HEK293 cells; [3]) | CC50 (HEK293 cells; [4]) | CC50 (Jurkat cells; [5]) | CC50 (Jurkat cells; [6]) | also measured
Cc1ccccc1NC(=O)C(=O)CC(=O)c1sc(Nc2ccccc2[N+](=O)[O-])nc1C [CH-1] | low cytotoxicity | 46.9 ± 10.2 µM | > 20 µM | 133 ± 5.1 µM | > 20 µM | –
COc1c(C(=O)Nc2ccc(C3=NCCN3)cc2)cccc1C(=O)Nc1ccc(C2=NCCN2)cc1 [CH-2] | low cytotoxicity | 151 ± 32.5 µM | > 20 µM | 94.9 ± 1.97 µM | > 20 µM | –
COc1cc(-c2ccc(NC(=O)CSC(N)=O)c(OC)c2)ccc1NC(=O)CSC(N)=O [CH-3] | low cytotoxicity | 78.1 ± 4.95 µM | > 20 µM | 212 ± 46.5 µM | > 20 µM | –
O=C(Nc1ccccc1)c1cc2ccccc2oc1=O [CH-4.9] | – | – | – | – | – | inhibitory capacity for the PD-1/PD-L1 interaction (luciferase activity) (PD-1/PD-L1 interaction): failed to inhibit; concentration associated with increasing cytotoxicity in HEK293 cells (HEK293 cells; Fig. 3A): exceeding 20 µM; cytotoxicity in Jurkat cells (Jurkat cells; up to 100 µM, Fig. 3A): neither analog showed any evidence of cytotoxicity
COc1ccc(N=Nc2ccc3oc(=O)c(C(=O)Nc4ccc(OC)cc4)cc3c2)cc1 [CH-4] | low cytotoxicity | – | – | – | – | inhibitory capacity for the PD-1/PD-L1 interaction (luciferase activity) (PD-1/PD-L1 interaction): potential inhibitory capacity; CC50 at 48 h [1, 3]: 18.9 ± 1.53 µM; CC50 at 48 h [1, 4]: > 20 µM; inhibition of sPD-L1 binding to KG-1 cells (shift in staining/fluorescence intensity) (PD-1/sPD-L1 interaction): slight, yet significant, shift in staining intensity; also recorded: significantly decreased the shift in fluorescence intensity; CC50 at 48 h [2, 5]: 30.3 ± 1.3 µM; CC50 at 48 h [2, 6]: > 20 µM; PD-1 protein expression (PD-1 protein): unchanged
O=c1c(/C=C/c2c(O)ccc3ccccc23)nnc2sc(-c3cccc([N+](=O)[O-])c3)nn12 [CH-5] | sensitized | 8.52 ± 1.74 µM | – | 10.6 ± 2.67 µM | – | –
C/C(=N\NC(=O)CCSCCC(=O)N/N=C(\C)c1ccccc1)c1ccccc1 [CH-6] | low cytotoxicity | 113 ± 26.1 µM | > 20 µM | 103.4 ± 0.94 µM | > 20 µM | –
